One data set has as its system MDA cells. The data set can be described thus: Cytotoxicity against MDA cell line. Particulars: read-out: Cytotoxicity IC50 MDA.
The next data set deals with Hela cells. The data set can be described thus: Cytotoxicity against Hela cell line. Particulars: read-out: Cytotoxicity IC50 Hela.
A further data set has as its system A549 cell line. The data set can be described thus: Cytotoxicity against A549 cell line. The following applies: read-out: Cytotoxicity IC50 A549.
A further data set addresses EGFR (Homo sapiens, UniProt P00533). The data set can be described thus: EGFR enzyme inhibitory activity.
The next data set has as its target VEGFR2 (Homo sapiens, UniProt P35968). The data set can be described thus: VEGFR2 enzyme inhibitory activity.
Where [1] appears, read: relative to docetaxel, from IC50 values.

Each structure is given as a SMILES string.

Here are results for ten molecules from paper PMC8157871, “Synthesis, Anticancer Screening of Some Novel Trimethoxy Quinazolines and VEGFR2, EGFR Tyrosine Kinase Inhibitors Assay; Molecular Docking Studies” (Molecules, 2021).

Sequence of EGFR (P00533 25-1210): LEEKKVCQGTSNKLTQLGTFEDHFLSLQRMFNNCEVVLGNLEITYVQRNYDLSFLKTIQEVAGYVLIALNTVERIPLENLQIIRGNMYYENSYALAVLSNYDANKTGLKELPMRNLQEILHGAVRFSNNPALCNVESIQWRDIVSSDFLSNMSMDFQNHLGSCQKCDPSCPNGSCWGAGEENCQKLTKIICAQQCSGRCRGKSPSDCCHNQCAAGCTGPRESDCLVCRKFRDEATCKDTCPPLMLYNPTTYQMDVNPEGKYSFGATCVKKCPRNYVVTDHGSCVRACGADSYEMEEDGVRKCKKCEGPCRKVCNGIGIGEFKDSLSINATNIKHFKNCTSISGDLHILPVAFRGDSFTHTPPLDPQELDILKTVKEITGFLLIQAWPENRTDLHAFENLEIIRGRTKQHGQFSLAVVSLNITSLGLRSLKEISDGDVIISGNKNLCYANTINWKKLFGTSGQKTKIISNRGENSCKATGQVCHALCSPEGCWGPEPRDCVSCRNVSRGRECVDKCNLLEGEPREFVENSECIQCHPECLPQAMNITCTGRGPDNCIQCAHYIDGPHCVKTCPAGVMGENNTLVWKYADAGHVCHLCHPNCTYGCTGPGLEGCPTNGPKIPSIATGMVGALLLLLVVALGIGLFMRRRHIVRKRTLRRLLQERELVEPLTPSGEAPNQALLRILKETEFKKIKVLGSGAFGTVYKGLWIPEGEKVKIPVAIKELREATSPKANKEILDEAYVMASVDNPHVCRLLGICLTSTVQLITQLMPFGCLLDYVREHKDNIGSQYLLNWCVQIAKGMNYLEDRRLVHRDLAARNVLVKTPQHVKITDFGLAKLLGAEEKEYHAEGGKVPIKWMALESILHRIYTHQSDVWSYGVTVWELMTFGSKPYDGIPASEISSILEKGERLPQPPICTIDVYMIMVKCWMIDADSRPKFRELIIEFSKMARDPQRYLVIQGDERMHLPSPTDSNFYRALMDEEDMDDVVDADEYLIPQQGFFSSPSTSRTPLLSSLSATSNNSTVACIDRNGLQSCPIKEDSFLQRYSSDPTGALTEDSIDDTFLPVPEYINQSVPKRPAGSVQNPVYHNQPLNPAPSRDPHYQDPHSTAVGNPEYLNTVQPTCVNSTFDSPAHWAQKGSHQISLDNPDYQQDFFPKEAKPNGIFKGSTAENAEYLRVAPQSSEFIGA
Sequence of VEGFR2 (P35968 20-1356): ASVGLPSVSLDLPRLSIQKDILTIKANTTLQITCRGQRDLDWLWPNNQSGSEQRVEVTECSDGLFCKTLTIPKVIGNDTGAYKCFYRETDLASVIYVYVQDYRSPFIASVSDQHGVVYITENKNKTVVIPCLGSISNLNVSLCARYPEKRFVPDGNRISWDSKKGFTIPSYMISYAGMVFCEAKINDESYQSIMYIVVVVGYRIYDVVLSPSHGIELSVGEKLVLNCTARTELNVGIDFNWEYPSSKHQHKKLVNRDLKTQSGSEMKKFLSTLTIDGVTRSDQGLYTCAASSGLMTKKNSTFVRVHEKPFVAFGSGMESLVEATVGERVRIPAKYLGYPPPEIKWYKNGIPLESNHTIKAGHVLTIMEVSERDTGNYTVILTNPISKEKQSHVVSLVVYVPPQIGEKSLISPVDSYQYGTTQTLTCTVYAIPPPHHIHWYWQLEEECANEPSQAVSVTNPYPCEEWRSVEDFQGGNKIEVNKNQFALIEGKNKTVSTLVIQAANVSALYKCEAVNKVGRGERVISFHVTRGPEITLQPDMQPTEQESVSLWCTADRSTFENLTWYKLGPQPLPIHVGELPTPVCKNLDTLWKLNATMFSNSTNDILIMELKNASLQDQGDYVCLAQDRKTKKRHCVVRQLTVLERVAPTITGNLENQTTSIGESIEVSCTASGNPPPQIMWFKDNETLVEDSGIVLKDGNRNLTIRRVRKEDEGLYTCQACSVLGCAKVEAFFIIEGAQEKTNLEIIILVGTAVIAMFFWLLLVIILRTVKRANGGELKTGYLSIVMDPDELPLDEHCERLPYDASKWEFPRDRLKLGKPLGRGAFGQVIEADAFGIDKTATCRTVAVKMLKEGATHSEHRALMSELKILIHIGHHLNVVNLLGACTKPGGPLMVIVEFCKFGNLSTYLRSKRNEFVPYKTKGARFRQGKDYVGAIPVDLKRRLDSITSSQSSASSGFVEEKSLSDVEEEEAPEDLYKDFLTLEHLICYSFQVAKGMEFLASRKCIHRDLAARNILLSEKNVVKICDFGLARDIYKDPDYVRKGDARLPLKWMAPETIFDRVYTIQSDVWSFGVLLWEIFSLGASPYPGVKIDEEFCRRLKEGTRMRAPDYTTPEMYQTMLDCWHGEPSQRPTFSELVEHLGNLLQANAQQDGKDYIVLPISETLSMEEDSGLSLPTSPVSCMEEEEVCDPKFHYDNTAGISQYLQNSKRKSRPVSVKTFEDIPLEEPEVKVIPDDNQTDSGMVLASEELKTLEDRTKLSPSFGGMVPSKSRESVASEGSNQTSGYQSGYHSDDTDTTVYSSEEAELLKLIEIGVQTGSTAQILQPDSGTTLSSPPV
Procedure for VEGFR2: The synthesized compounds were evaluated for anticancer activity by adapting a reported procedure [29, 30, 31, 32, 33] using two enzymes, VEGFR2 and EGFR, as well as three cell lines.

By melting point is commonly meant the temperature of the solid-liquid transition. By IC50 is commonly meant the concentration that gives 50% inhibition. Molecule `COc1cc(-c2nc3c(OC)cccc3c(=O)o2)cc(OC)c1OC` [Compound 3, 8-methoxy-2-trimethoxyphenyl-4H-benzo[d](1,3)oxazin-4-one] yielded a melting point of 182 to 184 °C. For the same molecule, the IC50 with MDA cells was 17.4 ± 0.5 µM. For the same molecule, in the data set with Hela cells, the IC50 was found to be 66.5 ± 1.74 µM. Besides, the IC50 in the data set with A549 cell line stood at 43.6 ± 1.1 µM.
In the same order, the values of `COc1cc(-c2nc3c(OC)cccc3c(=O)n2N)cc(OC)c1OC` [Compound 4, 3-amino-8-methoxy-2-trimethoxyphenylquanazoline-4(3H)-one] are 182 to 184 °C, 4.12 ± 0.1 µM, 29.8 ± 0.78 µM and 18 ± 0.5 µM.
For `COc1cc(-c2nc3c(OC)cccc3c(=O)[nH]2)cc(OC)c1OC` [Compound 5, 8-methoxy-2-trimethoxyphenylquanazoline-4(3H)-one], in that order: 242 to 244 °C, 4.39 ± 0.1 µM, 12.9 ± 0.34 µM and 26.3 ± 0.7 µM.
For `COc1cccc(C(N)=O)c1NC(=O)c1cc(OC)c(OC)c(OC)c1` [Compound 6], the melting point is 132 to 134 °C. The molecule also came in with an IC50 against EGFR of 0.106 ± 0.00222 µM. At EGFR (setting [1]), the “inhibitory activity for enzyme EGFR compared to the reference drug” value is listed as around 53%. Also, the IC50 at VEGFR2 stood at 0.0981 ± 0.00293 µM. Also, at VEGFR2 (setting [1]), the “inhibitory activity for enzyme VEGFR2 compared to the reference drug” value is reported as around 91%. In the data set with MDA cells, the IC50 was found to be 0.79 ± 0.04 µM. Further, the IC50 in the data set on Hela cells was found to be 2.8 ± 0.07 µM. For the same molecule, the IC50 in the data set on A549 cell line came to 81 ± 2.1 µM.
As to `COc1cccc(C(=O)NN)c1NC(=O)c1cc(OC)c(OC)c(OC)c1` [Compound 7, 3-methoxy-2-(trimethoxybenzamido)-benzoylhydrazide], the melting point lay within 195 to 197 °C. Further, the IC50 with MDA cells was determined as 9 ± 0.2 µM. In addition, the IC50 in the data set on Hela cells was 18.7 ± 0.49 µM. Besides, the IC50 in the data set with A549 cell line came to 46.3 ± 1.2 µM.
In the same order, the values of `COc1cccc(C(=O)NNS(=O)(=O)c2ccccc2)c1NC(=O)c1cc(OC)c(OC)c(OC)c1` [Compound 8, 3-methoxy-2-(trimethoxybenzamido)-N-[benzenesulphonyl]benzoylhydrazide] are 263 to 265 °C, 11.7 ± 0.3 µM, 4.94 ± 0.13 µM and 13 ± 0.3 µM.
For `COc1cc(-c2nc3c(OC)cccc3c(=O)n2NS(=O)(=O)c2ccccc2)cc(OC)c1OC` [Compound 9, 3-benzenesulfamoyl-8-methoxy-2-trimethoxyphenylquanazoline-4(3H)-one], in that order: 244 to 246 °C, 3.42 ± 0.1 µM, 11.7 ± 0.31 µM and 19.9 ± 0.5 µM.
For `COc1cc(-c2nc3c(OC)cccc3c(=O)n2C)cc(OC)c1OC` [Compound 10, 3-methyl-8-methoxy-2-trimethoxyphenylquanazoline-4(3H)-one], in that order: 218 to 220 °C, 7.77 ± 0.2 µM, 3.98 ± 0.1 µM and 12.3 ± 0.3 µM.
Turning to `COc1cc(-c2nc3c(OC)cccc3c(=O)n2-c2cc(OC)c(OC)c(OC)c2)cc(OC)c1OC` [Compound 11], the melting point was in the range of 237 to 239 °C. In addition, the IC50 in the data set with MDA cells came to 7.06 ± 0.2 µM. The IC50 in the data set with Hela cells turned out to be 12 ± 0.31 µM. Besides, in the data set with A549 cell line, the IC50 was found to be 4.03 ± 0.1 µM.
Turning to `CC(=O)O[C@@]12CO[C@@H]1C[C@H](O)[C@@]1(C)C(=O)[C@H](O)C3=C(C)[C@@H](OC(=O)[C@H](O)[C@@H](NC(=O)OC(C)(C)C)c4ccccc4)C[C@@](O)([C@@H](OC(=O)c4ccccc4)[C@H]21)C3(C)C` [Docetaxel, docetaxel, reference compound], the IC50 against EGFR worked out at 0.0561 ± 0.00117 µM; on VEGFR2 it was 0.0893 ± 0.00267 µM; in the data set with MDA cells it was 3.98 ± 0.08 µM; in the data set with Hela cells, 9.65 ± 0.2 µM; in the data set on A549 cell line, 10.8 ± 0.23 µM.
